Measurements published in patent US4393225A, “AI-77 Compounds and pharmaceutically acceptable salts thereof” (Asahi Kasei Kogyo Kabushiki Kaisha, priority 1979, dated 1983).
Where two headings read alike, the source gives them in different places.

Tested on: ulcer
Assay: Anti-ulcer test (restraint and water immersion ulcer in rats, i.p.)
Assay type: in vivo, Male Wistar rats
Settings: Rattus norvegicus, ip, read-out: % Inhibition of Ulcer
Procedure, shortened: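 Male Wistar rats (~150 g), fasted 24 h, dosed i.p. with compound in physiological saline; 1 h later restrained and immersed to xiphisternum in 21 °C water for 6 h. Stomachs examined microscopically, ulcers scored 0–3, and percent inhibition calculated.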

| SMILES | inhibition in vivo at 50 mg/kg (50 mg/kg i.p.) | inhibition in vivo at 50 mg/kg |
| --- | --- | --- |
| CCCCOC(C(=O)NC(CC(C)C)C1Cc2cccc(OC)c2C(=O)O1)C1OC(=O)CC1NC(=O)CCC (stereo not drawn) [IIIa-7-10] | 33% |  |
| CCCC(=O)NC1CC(=O)OC1C(OC(C)C)C(=O)NC(CC(C)C)C1Cc2cccc(OCc3ccccc3)c2C(=O)O1 (stereo not drawn) [IIIa-7-11] | 33% |  |
| CCCC(=O)NC1CC(=O)OC1C(OC(C)C)C(=O)NC(CC(C)C)C1Cc2cccc(OCC3CCCCC3)c2C(=O)O1 (stereo not drawn) [IIIa-7-12] | 33% |  |
| CCCC(=O)NC1CC(=O)OC1C(OC)C(=O)NC(CC(C)C)C1Cc2cccc(OCc3ccc4ccccc4c3)c2C(=O)O1 (stereo not drawn) [IIIa-7-13] | 33% |  |
| CCCC(=O)NC1CC(=O)OC1C(OC)C(=O)NC(CC(C)C)C1Cc2cccc(OCC3CCCCO3)c2C(=O)O1 (stereo not drawn) [IIIa-7-14] | 33% |  |
| CCCCCC(=O)OC(C)CCOc1cccc2c1C(=O)OC(C(CC(C)C)NC(=O)C(OC)C1OC(=O)CC1NC(=O)CCC)C2 (stereo not drawn) [IIIa-7-15] | 33% |  |
| CCCCOc1cccc2c1C(=O)OC(C(CC(C)C)NC(=O)C(OC)C1OC(=O)CC1NC(C)=O)C2 (stereo not drawn) [IIIa-7-16] | 33% |  |
| CCCOC(C(=O)NC(CC(C)C)C1Cc2cccc(OCC)c2C(=O)O1)C1OC(=O)CC1NC(=O)C(Cl)(Cl)Cl (stereo not drawn) [IIIa-7-17] | 33% |  |
| CCCCOC(C(=O)NC(CC(C)C)C1Cc2cccc(O)c2C(=O)O1)C1OC(=O)CC1NC(C)=O (stereo not drawn) [IIIa-8-1] | 56% |  |
| CC(C)CC(NC(=O)C(OC(=O)C(Cl)(Cl)Cl)C1OC(=O)CC1N)C1Cc2cccc(OC(=O)C(Cl)(Cl)Cl)c2C(=O)O1 (stereo not drawn) [IIIa-11-4] |  | 56% |
| CCCCCCCCC=CCCCCCCCC(=O)OC(C(=O)NC(CC(C)C)C1Cc2cccc(OC(=O)CC)c2C(=O)O1)C1OC(=O)CC1N (stereo not drawn) [IIIa-11-5] | 44% |  |
| CCCC(=O)Oc1cccc2c1C(=O)OC(C(CC(C)C)NC(=O)C(OC(C)=O)C1OC(=O)CC1N)C2 (stereo not drawn) [IIIa-11-6] | 56% |  |
| CC(=O)Oc1cccc2c1C(=O)OC(C(CC(C)C)NC(=O)C(O)C1OC(=O)CC1N)C2 (stereo not drawn) [IIIa-12-1] | 78% |  |
| CC(C)CC(NC(=O)C(O)C1OC(=O)CC1N)C1Cc2cccc(OC(=O)C(C)C)c2C(=O)O1 (stereo not drawn) [IIIa-12-2] | 78% |  |
| CCCCCCCCCCCCCCCCCC(=O)Oc1cccc2c1C(=O)OC(C(CC(C)C)NC(=O)C(O)C1OC(=O)CC1N)C2 (stereo not drawn) [IIIa-12-3] | 66% |  |
| CCCCCCCCC=CCCCCCCCC(=O)Oc1cccc2c1C(=O)OC(C(CC(C)C)NC(=O)C(O)C1OC(=O)CC1N)C2 (stereo not drawn) [IIIa-12-4] | 72% |  |
| CC(C)CC(NC(=O)C(O)C1OC(=O)CC1N)C1Cc2cccc(OC(=O)C3CCCO3)c2C(=O)O1 (stereo not drawn) [IIIa-12-5] | 78% |  |
| COC(C)CC(=O)Oc1cccc2c1C(=O)OC(C(CC(C)C)NC(=O)C(O)C1OC(=O)CC1N)C2 (stereo not drawn) [IIIa-12-6] | 78% |  |
| Cc1ccc(C(=O)Oc2cccc3c2C(=O)OC(C(CC(C)C)NC(=O)C(O)C2OC(=O)CC2N)C3)cc1 (stereo not drawn) [IIIa-12-7] | 78% |  |
| CC(C)CCOc1ccc(C(=O)Oc2cccc3c2C(=O)OC(C(CC(C)C)NC(=O)C(O)C2OC(=O)CC2N)C3)cc1 (stereo not drawn) [IIIa-12-8] | 72% |  |
| CC(C)CC(NC(=O)C(O)C1OC(=O)CC1N)C1Cc2cccc(OC(=O)C(Cl)(Cl)Cl)c2C(=O)O1 (stereo not drawn) [IIIa-12-9] | 66% |  |
| COc1cccc2c1C(=O)OC(C(CC(C)C)NC(=O)C(O)C1OC(=O)CC1N)C2 (stereo not drawn) [IIIa-13-1] | 100% |  |

| SMILES | inhibition in vivo at 50 mg/kg (50 mg/kg i.p.) | inhibition in vivo at 50 mg/kg |
| --- | --- | --- |
| CCOc1cccc2c1C(=O)OC(C(CC(C)C)NC(=O)C(O)C1OC(=O)CC1N)C2 (stereo not drawn) [IIIa-13-2] | 94% |  |
| CCCCOc1cccc2c1C(=O)OC(C(CC(C)C)NC(=O)C(O)C1OC(=O)CC1N)C2 (stereo not drawn) [IIIa-13-3] | 100% |  |
| CC(C)CCOc1cccc2c1C(=O)OC(C(CC(C)C)NC(=O)C(O)C1OC(=O)CC1N)C2 (stereo not drawn) [IIIa-13-4] | 100% |  |
| CCCCCCCCCCCCCCCCCCOc1cccc2c1C(=O)OC(C(CC(C)C)NC(=O)C(O)C1OC(=O)CC1N)C2 (stereo not drawn) [IIIa-13-5] | 72% |  |
| CC(C)CC(NC(=O)C(O)C1OC(=O)CC1N)C1Cc2cccc(OCCCl)c2C(=O)O1 (stereo not drawn) [IIIa-13-6] | 94% |  |
| CCCCCCCCC=CCCCCCCCCOc1cccc2c1C(=O)OC(C(CC(C)C)NC(=O)C(O)C1OC(=O)CC1N)C2 (stereo not drawn) [IIIa-13-7] | 72% |  |
| CC(C)CC(NC(=O)C(O)C1OC(=O)CC1N)C1Cc2cccc(OCc3ccccc3)c2C(=O)O1 (stereo not drawn) [IIIa-13-9] | 89% |  |
| CC(C)CC(NC(=O)C(O)C1OC(=O)CC1N)C1Cc2cccc(OC3CC3)c2C(=O)O1 (stereo not drawn) [IIIa-13-10] | 94% |  |
| CC(C)CC(NC(=O)C(O)C1OC(=O)CC1N)C1Cc2cccc(OCC3CCCCC3)c2C(=O)O1 (stereo not drawn) [IIIa-13-11] | 78% |  |
| CC(C)CC(NC(=O)C(O)C1OC(=O)CC1N)C1Cc2cccc(OCCc3ccccc3)c2C(=O)O1 (stereo not drawn) [IIIa-13-12] | 89% |  |
| CC(C)CC(NC(=O)C(O)C1OC(=O)CC1N)C1Cc2cccc(OCc3ccco3)c2C(=O)O1 (stereo not drawn) [IIIa-13-13] | 89% |  |
| CC(C)CC(NC(=O)C(O)C1OC(=O)CC1N)C1Cc2cccc(OCC3CCCO3)c2C(=O)O1 (stereo not drawn) [IIIa-13-14] | 89% |  |
| CC(C)CC(NC(=O)C(O)C1OC(=O)CC1N)C1Cc2cccc(OCCC3CCCCO3)c2C(=O)O1 (stereo not drawn) [IIIa-13-15] | 94% |  |
| CC(=O)N1CCC(COc2cccc3c2C(=O)OC(C(CC(C)C)NC(=O)C(O)C2OC(=O)CC2N)C3)CC1 (stereo not drawn) [IIIa-13-16] | 89% |  |
| CC(C)CC(NC(=O)C(O)C1OC(=O)CC1N)C1Cc2cccc(OCc3ccc4ccccc4c3)c2C(=O)O1 (stereo not drawn) [IIIa-13-17] | 72% |  |
| CC(C)CC(NC(=O)C(O)C1OC(=O)CC1N)C1Cc2cccc(OCCc3ccc4ccccc4c3)c2C(=O)O1 (stereo not drawn) [IIIa-13-18] | 72% |  |
| CC(C)CC(NC(=O)C(O)C1OC(=O)CC1N)C1Cc2cccc(OCCCBr)c2C(=O)O1 (stereo not drawn) [IIIa-13-19] |  | 100% |
| CCC(=O)COc1cccc2c1C(=O)OC(C(CC(C)C)NC(=O)C(O)C1OC(=O)CC1N)C2 (stereo not drawn) [IIIa-13-20] | 100% |  |
| Cc1ccc(COc2cccc3c2C(=O)OC(C(CC(C)C)NC(=O)C(O)C2OC(=O)CC2N)C3)cc1 (stereo not drawn) [IIIa-13-21] | 89% |  |
| COc1ccc(COc2cccc3c2C(=O)OC(C(CC(C)C)NC(=O)C(O)C2OC(=O)CC2N)C3)cc1 (stereo not drawn) [IIIa-13-23] | 72% |  |
| CCOc1cccc2c1C(=O)OC(C(CC(C)C)NC(=O)C(OC(C)=O)C1OC(=O)CC1N)C2 (stereo not drawn) [IIIa-14-1] | 56% |  |
| CCOc1cccc2c1C(=O)OC(C(CC(C)C)NC(=O)C(OC(=O)C(C)C)C1OC(=O)CC1N)C2 (stereo not drawn) [IIIa-14-2] | 56% |  |

| SMILES | inhibition in vivo at 50 mg/kg (50 mg/kg i.p.) | inhibition in vivo at 50 mg/kg |
| --- | --- | --- |
| CCCCCCCCCCCCCCCCCC(=O)OC(C(=O)NC(CC(C)C)C1Cc2cccc(OCC)c2C(=O)O1)C1OC(=O)CC1N (stereo not drawn) [IIIa-14-3] | 44% |  |
| CCOc1cccc2c1C(=O)OC(C(CC(C)C)NC(=O)C(OC(=O)CC)C1OC(=O)CC1N)C2 (stereo not drawn) [IIIa-14-9] | 56% |  |
| CCCCOC(C(=O)NC(CC(C)C)C1Cc2cccc(OC)c2C(=O)O1)C1OC(=O)CC1N (stereo not drawn) [IIIa-15-1] | 56% |  |
| CCCCOc1cccc2c1C(=O)OC(C(CC(C)C)NC(=O)C(OCCCC)C1OC(=O)CC1N)C2 (stereo not drawn) [IIIa-15-2] | 56% |  |
| CCCCCCCCCCCCCCCCCCOc1cccc2c1C(=O)OC(C(CC(C)C)NC(=O)C(OCCCC)C1OC(=O)CC1N)C2 (stereo not drawn) [IIIa-15-3] | 44% |  |
| CCCOC(C(=O)NC(CC(C)C)C1Cc2cccc(OCC)c2C(=O)O1)C1OC(=O)CC1N (stereo not drawn) [IIIa-15-8] | 56% |  |
| COC(C(=O)NC(CC(C)C)C1Cc2cccc(O)c2C(=O)O1)C1OC(=O)CC1N (stereo not drawn) [IIIa-16-1] | 72% |  |
| CCCCCCCCCCCCCCCCCCOC(C(=O)NC(CC(C)C)C1Cc2cccc(O)c2C(=O)O1)C1OC(=O)CC1N (stereo not drawn) [IIIa-16-3] | 56% |  |
| CCOC(C(=O)NC(CC(C)C)C1Cc2cccc(O)c2C(=O)O1)C1OC(=O)CC1N (stereo not drawn) [IIIa-16-7] | 72% |  |
| COC(C(=O)NC(CC(C)C)C1Cc2cccc(OC(C)=O)c2C(=O)O1)C1OC(=O)CC1N (stereo not drawn) [IIIa-17-1] | 56% |  |
| CCCCCCCCCCCCCCCCCC(=O)Oc1cccc2c1C(=O)OC(C(CC(C)C)NC(=O)C(OC)C1OC(=O)CC1N)C2 (stereo not drawn) [IIIa-17-2] | 44% |  |
| CCCC(=O)Oc1cccc2c1C(=O)OC(C(CC(C)C)NC(=O)C(OCC)C1OC(=O)CC1N)C2 (stereo not drawn) [IIIa-17-3] | 56% |  |
| CCC(=O)Oc1cccc2c1C(=O)OC(C(CC(C)C)NC(=O)C(OC)C1OC(=O)CC1N)C2 (stereo not drawn) [IIIa-17-5] | 44% |  |
| CCOC(C(=O)NC(CC(C)C)C1Cc2cccc(OC(=O)C(Cl)(Cl)Cl)c2C(=O)O1)C1OC(=O)CC1N (stereo not drawn) [IIIa-17-6] | 56% |  |
| CC(C)CC(NC(=O)C(O)C1OC(=O)CC1NCC(Cl)(Cl)Cl)C1Cc2cccc(O)c2C(=O)O1 (stereo not drawn) [IIIa-18-12] | 94% |  |
| CC(C)CC(NC(=O)C(O)C1OC(=O)CC1NCc1ccccc1)C1Cc2cccc(O)c2C(=O)O1 (stereo not drawn) [IIIa-18-14] | 89% |  |
| CC(C)CC(NC(=O)C(O)C1OC(=O)CC1NCCCCBr)C1Cc2cccc(O)c2C(=O)O1 (stereo not drawn) [IIIa-18-26] |  | 94% |
| CSCCNC1CC(=O)OC1C(O)C(=O)NC(CC(C)C)C1Cc2cccc(O)c2C(=O)O1 (stereo not drawn) [IIIa-18-38] | 94% |  |
| CCCCCSCCNC1CC(=O)OC1C(O)C(=O)NC(CC(C)C)C1Cc2cccc(O)c2C(=O)O1 (stereo not drawn) [IIIa-18-39] | 94% |  |
| C#CCNC1CC(=O)OC1C(O)C(=O)NC(CC(C)C)C1Cc2cccc(O)c2C(=O)O1 (stereo not drawn) [IIIa-18-46] | 100% |  |
| CC(C)CC(NC(=O)C(O)C1OC(=O)CC1NCCCCCO)C1Cc2cccc(O)c2C(=O)O1 (stereo not drawn) [IIIa-18-52] | 94% |  |
| CC(C)=CCNC1CC(=O)OC1C(O)C(=O)NC(CC(C)C)C1Cc2cccc(O)c2C(=O)O1 (stereo not drawn) [IIIa-18-70] | 94% |  |
